Results from article PMC3570965 (Science translational medicine, 2012).
Like-named read-outs stand apart in the source and are kept apart here. Values belong to the compound of their own block, whether it stands above or below them.

Tests used:
[1] = cited from earlier work
[2] = Pharmacokinetic analyses in NOD/SCID mice; type: in vivo
[3] = test system: ccRCC tumorgraft lines; test: Drug trials in subcutaneous ccRCC tumorgraft lines; type: in vivo, NOD/SCID mice; conditions: 4 ccRCC tumorgraft lines; dovitinib 30 mg/kg by gavage
[4] = test system: papillary RCC tumorgraft line (TG121); test: Drug trial in papillary RCC tumorgraft line TG121; type: in vivo, NOD/SCID mice; conditions: dovitinib 30 mg/kg by gavage
[5] = test system: TG144 tumorgraft-bearing mice; test: Serum calcium; type: in vivo, NOD/SCID mice; conditions: TG144, end of trial
[6] = test system: NSCLC cell line-derived xenograft; test: NSCLC; type: in vivo, mice; conditions: same erlotinib regimen (12.5 mg/kg by gavage every 12 h)
[7] = test system: ccRCC; conditions: patients with ccRCC, randomized phase II trial; cited from earlier work

- metabolite as share of total circulating drug ([2]; NOD/SCID mice, day 1, after sunitinib): 38%
Compound: CCNCCNC(=O)c1c(C)[nH]c(/C=C2\C(=O)Nc3ccc(F)cc32)c1C [desethyl sunitinib]
- metabolite as share of total circulating drug ([1]; humans, day 1, after sunitinib, ref Table 6): 13%

- peak and overall exposures compared with humans ([2]; dovitinib 30 mg/kg daily by gavage, mice): within the range reported in humans
Compound: CN1CCN(c2ccc3nc(-c4c(N)c5c(F)cccc5[nH]c4=O)[nH]c3c2)CC1 [dovitinib]
- effect on ccRCC tumorgraft growth [3]: profoundly suppressed
- activity in papillary RCC tumorgraft line [4]: very active
- Terminal t1/2 ([1]; human, 500 mg PO qd, PK data at (D15), analyte Dovitinib, ref Kim, et al 2011): 21 h
- effect on paraneoplastic hypercalcemia (serum calcium) [5]: inhibited the development of paraneoplastic hypercalcemia

- peak exposures compared with humans ([2]; sunitinib 10 mg/kg by gavage every 12 h, mice): slightly higher than in humans
- half-life compared with humans ([2]; sunitinib, mice vs humans): much shorter in mice
Compound: CCN(CC)CCNC(=O)c1c(C)[nH]c(/C=C2\C(=O)Nc3ccc(F)cc32)c1C [sunitinib]

The remaining lines, values behind:

Compound: CO[C@H]1C[C@@H]2CC[C@@H](C)[C@@](O)(O2)C(=O)C(=O)N2CCCC[C@H]2C(=O)O[C@H]([C@H](C)C[C@@H]2CC[C@@H](OCCO)[C@H](OC)C2)CC(=O)[C@H](C)/C=C(\C)[C@@H](O)[C@@H](OC)C(=O)[C@H](C)C[C@H](C)/C=C/C=C/C=C/1C [Everolimus]
- Cmin ([1]; human, 10 mg PO qd, analyte Everolimus, mean ± SD, ref Awada et al., 2008): 0.0132 ± 0.0072 µg/mL

Compound: C#Cc1cccc(Nc2ncnc3cc(OCCOC)c(OCCOC)cc23)c1 [erlotinib]
- effect on NSCLC cell line-derived xenograft growth [6]: profound effect
- peak and overall exposures compared with humans ([2]; erlotinib 12.5 mg/kg by gavage every 12 h, mice): higher
- outcomes in combination with bevacizumab vs bevacizumab alone [7]: failed to show improved outcomes
- half-life ([1]; humans): 24 h

Compound: CO[C@H]1C[C@@H]2CC[C@@H](C)[C@@](O)(O2)C(=O)C(=O)N2CCCC[C@H]2C(=O)O[C@H]([C@H](C)C[C@@H]2CC[C@@H](O)[C@H](OC)C2)CC(=O)[C@H](C)/C=C(\C)[C@@H](O)[C@@H](OC)C(=O)[C@H](C)C[C@H](C)/C=C/C=C/C=C/1C [sirolimus]
- peak and overall exposures, fold higher than in humans ([2]; sirolimus 0.5 mg/kg intraperitoneally every 48 h, NOD/SCID mice vs humans): 2-3 fold
- share of circulating drug after temsirolimus administration ([1]; humans, after temsirolimus administration): 75%
- therapeutic range (trough levels) in humans ([1]; humans): 5 to 15 ng/mL
